Tested on: HIV-1 laboratory strain, NL4-3
Test: MT-4 cytoprotection assay (WST-1 readout)
Type: cell-based
Conditions: Human immunodeficiency virus 1, NL43, MT4, 96 h; MT-4 cells infected with HIV-1 NL4-3, MOI 0.0005, four days incubation; read-out: EC50, antiviral activity in the MT4 assay (most active compounds)
Protocol: The compounds of the invention can be tested in the following MT-4 assay to detect antiviral activity.
The HTLV-1 transformed T cell line, MT-4, is highly susceptible to HIV-1 infection. Anti-HIV-1 agents were evaluated in this target cell line by protection from the HIV-induced cytopathic effect. In this assay, viability of both HIV-1 and mock-infected cells was assessed in a colorimetric assay that monitors the ability of metabolically-active cells to reduce the tetrazolium salt WST-1. Cytoprotection by antiviral compounds is indicated by the positive readout of increased WST-1 cleavage.
Briefly, exponentially growing MT-4 cells were mock-infected or batch-infected with the HIV-1 laboratory strain, NL4-3, at a multiplicity of infection of 0.0005. Following a two hour infection, the cells were washed to remove unbound virus and plated in the presence of increasing concentrations of compound. After four days incubation, cytoprotection in the infected cells and compound toxicity in mock-infected cells were analyzed using the WST-1 assay.

Row | SMILES | EC50
1 | C=C(C)[C@@H]1CC[C@]2(C#Cc3sccc3C(=O)O)CC[C@]3(C)C(CCC4[C@@]5(C)CC[C@H](OC(=O)CC(C)(C)C(=O)O)C(C)(C)C5CC[C@]43C)C12 (some centres unmarked) [Compound 9] | ≤ 100 nM
2 | C=C(C)[C@@H]1CC[C@]2(C#CC3=C(C(=O)O)CN(C(=O)OC(C)(C)C)CC3)CC[C@]3(C)C(CCC4[C@@]5(C)CC[C@H](OC(=O)CC(C)(C)C(=O)O)C(C)(C)C5CC[C@]43C)C12 (some centres unmarked) [Compound 42] | ≤ 100 nM
3 | C=C(C)[C@@H]1CC[C@]2(C#Cc3cc(Cl)ccc3C(=O)O)CC[C@]3(C)C(CCC4[C@@]5(C)CC[C@H](OC(=O)CC(C)(C)C(=O)O)C(C)(C)C5CC[C@]43C)C12 (some centres unmarked) [Compound 34] | ≤ 100 nM
4 | C=C(C)[C@@H]1CC[C@]2(C#Cc3ccccc3C(=O)NS(C)(=O)=O)CC[C@]3(C)C(CCC4[C@@]5(C)CC[C@H](OC(=O)CC(C)(C)C(=O)O)C(C)(C)C5CC[C@]43C)C12 (some centres unmarked) [Compound 55] | ≤ 100 nM
5 | C=C(C)[C@@H]1CC[C@]2(C#Cc3ccc(OC)c(OC)c3C(=O)O)CC[C@]3(C)C(CCC4[C@@]5(C)CC[C@H](OC(=O)CC(C)(C)C(=O)O)C(C)(C)C5CC[C@]43C)C12 (some centres unmarked) [Compound 50] | ≤ 100 nM
6 | C=C(C)[C@@H]1CC[C@]2(C#Cc3cccc(Cl)c3C(=O)O)CC[C@]3(C)C(CCC4[C@@]5(C)CC[C@H](OC(=O)CC(C)(C)C(=O)O)C(C)(C)C5CC[C@]43C)C12 (some centres unmarked) [Compound 51] | ≤ 100 nM
7 | C=C(C)[C@@H]1CC[C@]2(C#Cc3cc(F)ccc3C(=O)O)CC[C@]3(C)C(CCC4[C@@]5(C)CC[C@H](OC(=O)CC(C)(C)C(=O)O)C(C)(C)C5CC[C@]43C)C12 (some centres unmarked) [Compound 13] | ≤ 100 nM
8 | C=C(C)[C@@H]1CC[C@]2(C#Cc3ccc(Cl)cc3C(=O)O)CC[C@]3(C)C(CCC4[C@@]5(C)CCC(OC(=O)CC(C)(C)C(=O)O)C(C)(C)C5CC[C@]43C)C12 (some centres unmarked) [Compound 35] | ≤ 100 nM
9 | C=C(C)[C@@H]1CC[C@]2(C#Cc3c(C)cccc3C(=O)O)CC[C@]3(C)C(CCC4[C@@]5(C)CC[C@H](OC(=O)CC(C)(C)C(=O)O)C(C)(C)C5CC[C@]43C)C12 (some centres unmarked) [Compound 22] | ≤ 100 nM
10 | C=C(C)[C@@H]1CC[C@]2(C#Cc3ccccc3C(N)=O)CC[C@]3(C)C(CCC4[C@@]5(C)CC[C@H](OC(=O)CC(C)(C)C(=O)O)C(C)(C)C5CC[C@]43C)C12 (some centres unmarked) [Compound 27] | ≤ 100 nM
11 | C=C(C)[C@@H]1CC[C@]2(C#CC3=C(C(=O)O)CCC3)CC[C@]3(C)C(CCC4[C@@]5(C)CC[C@H](OC(=O)CC(C)(C)C(=O)O)C(C)(C)C5CC[C@]43C)C12 (some centres unmarked) [Compound 41] | ≤ 100 nM
12 | C=C(C)[C@@H]1CC[C@]2(C#Cc3cc(C)ccc3C(=O)O)CC[C@]3(C)C(CCC4[C@@]5(C)CC[C@H](OC(=O)CC(C)(C)C(=O)O)C(C)(C)C5CC[C@]43C)C12 (some centres unmarked) [Compound 36] | ≤ 100 nM
13 | C=C(C)[C@@H]1CC[C@]2(C#Cc3cccc(F)c3C(=O)O)CC[C@]3(C)C(CCC4[C@@]5(C)CC[C@H](OC(=O)CC(C)(C)C(=O)O)C(C)(C)C5CC[C@]43C)C12 (some centres unmarked) [Compound 20] | ≤ 100 nM
14 | C=C(C)[C@@H]1CC[C@]2(C#Cc3ccncc3C(=O)O)CC[C@]3(C)C(CCC4[C@@]5(C)CC[C@H](OC(=O)CC(C)(C)C(=O)O)C(C)(C)C5CC[C@]43C)C12 (some centres unmarked) [Compound 54] | ≤ 100 nM
15 | C=C(C)[C@@H]1CC[C@]2(C#Cc3ccsc3C(=O)O)CC[C@]3(C)C(CCC4[C@@]5(C)CC[C@H](OC(=O)CC(C)(C)C(=O)O)C(C)(C)C5CC[C@]43C)C12 (some centres unmarked) [Compound 11] | ≤ 100 nM
16 | C=C(C)[C@@H]1CC[C@]2(C#Cc3ccccc3C(=O)O)CC[C@]3(C)C(CCC4[C@@]5(C)CC[C@H](OC(=O)CC(C)(C)C(=O)O)C(C)(C)C5CC[C@]43C)C12 (stereo partly drawn) [Compound 6, 2,2-Dimethyl-succinic acid 4-[(1R,5aR,5bR,9S,11aR)-3a-(2-carboxy-phenylethynyl)-1-isopropenyl-5a,5b,8,8,11a-pentamethyl-icosahydro-cyclopenta[a]chrysen-9-yl]ester] | ≤ 100 nM
17 | C=C(C)[C@@H]1CC[C@]2(C#Cc3ccsc3-c3nnn[nH]3)CC[C@]3(C)C(CCC4[C@@]5(C)CC[C@H](OC(=O)CC(C)(C)C(=O)O)C(C)(C)C5CC[C@]43C)C12 (some centres unmarked) [Compound 18] | ≤ 100 nM
18 | C=C(C)[C@@H]1CC[C@]2(C#Cc3ccccc3C(=O)N(C)C)CC[C@]3(C)C(CCC4[C@@]5(C)CC[C@H](OC(=O)CC(C)(C)C(=O)O)C(C)(C)C5CC[C@]43C)C12 (some centres unmarked) [Compound 30] | ≤ 100 nM
19 | C=C(C)[C@@H]1CC[C@]2(CCc3ccccc3C(=O)O)CC[C@]3(C)C(CCC4[C@@]5(C)CC[C@H](OC(=O)CC(C)(C)C(=O)O)C(C)(C)C5CC[C@]43C)C12 (some centres unmarked) [Compound 28] | ≤ 100 nM
20 | C=C(C)[C@@H]1CC[C@]2(C#Cc3ccc(F)cc3C(=O)O)CC[C@]3(C)C(CCC4[C@@]5(C)CC[C@H](OC(=O)CC(C)(C)C(=O)O)C(C)(C)C5CC[C@]43C)C12 (some centres unmarked) [Compound 21] | ≤ 100 nM
21 | C=C(C)[C@@H]1CC[C@]2(C#CC3=C(C(=O)O)CNCC3)CC[C@]3(C)C(CCC4[C@@]5(C)CC[C@H](OC(=O)CC(C)(C)C(=O)O)C(C)(C)C5CC[C@]43C)C12 (some centres unmarked) [Compound 43] | ≤ 100 nM
22 | C=C(C)[C@@H]1CC[C@]2(C#CC3=C(C(=O)O)CCCC3)CC[C@]3(C)C(CCC4[C@@]5(C)CC[C@H](OC(=O)CC(C)(C)C(=O)O)C(C)(C)C5CC[C@]43C)C12 (some centres unmarked) [Compound 45] | ≤ 100 nM
23 | C=C(C)[C@@H]1CC[C@]2(C#Cc3ccccc3S(C)(=O)=O)CC[C@]3(C)C(CCC4[C@@]5(C)CC[C@H](OC(=O)CC(C)(C)C(=O)O)C(C)(C)C5CC[C@]43C)C12 (some centres unmarked) [Compound 32] | ≤ 100 nM

From patent publication US20100240630A1, “COMPOUNDS AND THERAPEUTIC USES THEREOF” (Myriad Pharmaceuticals, Inc.., priority 2007, published 2010)
